Measurements taken from patent US9856242B2, “5-fluoro-N-(pyridin-2-yl)pyridin-2-amine derivatives containing a sulfone group” (Bayer Pharma Aktiengesellschaft, priority 2014, dated 2018).

Tests used:
B16F10 cells = test: Proliferation assay (Method 3), B16F10; assay type: cell-based; conditions: B16-F10, 96 h; mouse melanoma, 4 days, crystal violet; read-out: Inhibition of B16F10 cell proliferation IC50
Experimental: (§1) Cultivated tumour cells (HeLa, human cervical tumour cells, ATCC CCL-2; NCI-H460, human non-small cell lung carcinoma cells, ATCC HTB-177; A2780, human ovarian carcinoma cells, ECACC #93112519; DU 145, hormone-independent human prostate carcinoma cells, ATCC HTB-81; HeLa-MaTu-ADR, multidrug-resistant human cervical carcinoma cells, EPO-GmbH Berlin; Caco-2, human colorectal carcinoma cells, ATCC HTB-37; B16F10, mouse melanoma cells, ATCC CRL-6475) were plated at a density of 5,000 cells/well (DU145, HeLa-MaTu-ADR), 3,000 cells/well (NCI-H460, HeLa), 2,500 cells/well (A2780), 1,500 cells/well (Caco-2), or 1,000 cells/well (B16F10) in a 96-well multititer plate in 200 μL of their respective growth medium supplemented 10% fetal calf serum. After 24 hours, the cells of one plate (zero-point plate) were stained with crystal violet (see below), while the medium of the other plates was replaced by fresh culture medium (200 μl), to which the test substances were added in various concentrations (0 μM, as well as in the range of 0.001-10 μM; the final concentration of the solvent dimethyl sulfoxide was 0.5%). The cells were incubated for 4 days in the presence of test substances. Cell proliferation was determined by staining the cells with crystal violet: the cells were fixed by adding 20 μl/measuring point of an 11% glutaric aldehyde solution for 15 minutes at room temperature. After three washing cycles of the fixed cells with water, the plates were dried at room temperature. The cells were stained by adding 100 μl/measuring point of a 0.1% crystal violet solution (pH 3.0). After three washing cycles of the stained cells with water, the plates were dried at room temperature. The dye was dissolved by adding 100 μl/measuring point of a 10% acetic acid solution. The extinction was determined by photometry at a wavelength of 595 nm. The change of cell number, in percent, was calculated by normalization of the measured values to the extinction values of the zero-point plate (=0%) and the extinction of the untreated (0 μm) cells (=100%). The IC50 values (inhibitory concentration at 50% of maximal effect) were determined by means of a 4 parameter fit.

CDK9/CycT1 = molecular target: T1, CDK9/CycT1 (Homo sapiens, UniProt P50750); test: CDK9/CycT1 kinase assay (Method 1a, TR-FRET, 10 μM ATP); assay type: biochemical; conditions: for IC50: Method 1a, 10 μM ATP; for Selectivity CDK9/CDK2: according to Methods 1a and 2a (ratio of CDK2 IC50 to CDK9 IC50)
T1 construct: Recombinant full-length His-tagged human CDK9 and CycT1; His; purchased Invitrogen PV4131; host or cells: insect cells
Source text: 1a. CDK9/CycT1 Kinase Assay:
CDK9/CycT1-inhibitory activity of compounds of the present invention was quantified employing the CDK9/CycT1 TR-FRET assay as described in the following paragraphs:
Recombinant full-length His-tagged human CDK9 and CycT1, expressed in insect cells and purified by Ni-NTA affinity chromatography, were purchased from Invitrogen (Cat. No PV4131). As substrate for the kinase reaction biotinylated peptide biotin-Ttds-YISPLKSPYKISEG (C-terminus in amid form) was used which can be purchased e.g. form the company JERINI Peptide Technologies (Berlin, Germany). For the assay 50 n1 of a 100 fold concentrated solution of the test compound in DMSO was pipetted into a black low volume 384 well microtiter plate (Greiner Bio-One, Frickenhausen, Germany), 2 μl of a solution of CDK9/CycT1 in aqueous assay buffer [50 mM Tris/HCl pH 8.0, 10 mM MgCl2, 1.0 mM dithiothreitol, 0.1 mM sodium ortho-vanadate, 0.01% (v/v) Nonidet-P40 (Sigma)] were added and the mixture was incubated for 15 min at 22° C. to allow pre-binding of the test compounds to the enzyme before the start of the kinase reaction. Then the kinase reaction was started by the addition of 3 μl of a solution of adenosine-tri-phosphate (ATP, 16.7 μM=>final conc. in the 5 μl assay volume is 10 μM) and substrate (1.67 μM=>final conc. in the 5 μl assay volume is 1 μM) in assay buffer and the resulting mixture was incubated for a reaction time of 25 min at 22° C. The concentration of CDK9/CycT1 was adjusted depending of the activity of the enzyme lot and was chosen appropriate to have the assay in the linear range, typical concentrations were in the range of 1 μg/mL. The reaction was stopped by the addition of 5 μl of a solution of TR-FRET detection reagents (0.2 μM streptavidine-XL665 [Cisbio Bioassays, Codolet, France] and 1 nM anti-RB(pSer807/pSer811)-antibody from BD Pharmingen [#558389] and 1.2 nM LANCE EU-W1024 labeled anti-mouse IgG antibody [Perkin-Elmer, product no. AD0077]) in an aqueous EDTA-solution (100 mM EDTA, 0.2% (w/v) bovine serum albumin in 100 mM HEPES/NaOH pH 7.0).
The resulting mixture was incubated 1 h at 22° C. to allow the formation of complex between the phosphorylated biotinylated peptide and the detection reagents. Subsequently the amount of phosphorylated substrate was evaluated by measurement of the resonance energy transfer from the Eu-chelate to the streptavidine-XL. Therefore, the fluorescence emissions at 620 nm and 665 nm after excitation at 350 nm was measured in a HTRF reader, e.g. a Rubystar (BMG Labtechnologies, Offenburg, Germany) or a Viewlux (Perkin-Elmer). The ratio of the emissions at 665 nm and at […] was taken as the measure for the amount of phosphorylated substrate. The data were normalised (enzyme reaction without inhibitor=0% inhibition, all other assay components but no enzyme=100% inhibition).

HeLa-MaTu-ADR cells = test: Proliferation assay (Method 3), HeLa-MaTu-ADR; assay type: cell-based; conditions: 96 h; multidrug-resistant human cervical carcinoma, 4 days, crystal violet; read-out: Inhibition of HeLa-MaTu-ADR cell proliferation IC50
Experimental: as §1

T1 sequence (P50750 whole entry): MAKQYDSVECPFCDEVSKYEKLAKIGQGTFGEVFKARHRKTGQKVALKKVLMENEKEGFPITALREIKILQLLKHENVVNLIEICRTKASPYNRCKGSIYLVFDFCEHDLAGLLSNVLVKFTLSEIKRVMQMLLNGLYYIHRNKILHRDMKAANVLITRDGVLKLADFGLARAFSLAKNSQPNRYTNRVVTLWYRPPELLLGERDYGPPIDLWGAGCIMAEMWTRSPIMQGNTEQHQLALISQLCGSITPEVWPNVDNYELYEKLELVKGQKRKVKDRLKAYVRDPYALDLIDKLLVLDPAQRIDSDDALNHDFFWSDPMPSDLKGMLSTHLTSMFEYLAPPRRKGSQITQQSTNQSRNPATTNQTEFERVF
T1 sequence (O60563 whole entry partner): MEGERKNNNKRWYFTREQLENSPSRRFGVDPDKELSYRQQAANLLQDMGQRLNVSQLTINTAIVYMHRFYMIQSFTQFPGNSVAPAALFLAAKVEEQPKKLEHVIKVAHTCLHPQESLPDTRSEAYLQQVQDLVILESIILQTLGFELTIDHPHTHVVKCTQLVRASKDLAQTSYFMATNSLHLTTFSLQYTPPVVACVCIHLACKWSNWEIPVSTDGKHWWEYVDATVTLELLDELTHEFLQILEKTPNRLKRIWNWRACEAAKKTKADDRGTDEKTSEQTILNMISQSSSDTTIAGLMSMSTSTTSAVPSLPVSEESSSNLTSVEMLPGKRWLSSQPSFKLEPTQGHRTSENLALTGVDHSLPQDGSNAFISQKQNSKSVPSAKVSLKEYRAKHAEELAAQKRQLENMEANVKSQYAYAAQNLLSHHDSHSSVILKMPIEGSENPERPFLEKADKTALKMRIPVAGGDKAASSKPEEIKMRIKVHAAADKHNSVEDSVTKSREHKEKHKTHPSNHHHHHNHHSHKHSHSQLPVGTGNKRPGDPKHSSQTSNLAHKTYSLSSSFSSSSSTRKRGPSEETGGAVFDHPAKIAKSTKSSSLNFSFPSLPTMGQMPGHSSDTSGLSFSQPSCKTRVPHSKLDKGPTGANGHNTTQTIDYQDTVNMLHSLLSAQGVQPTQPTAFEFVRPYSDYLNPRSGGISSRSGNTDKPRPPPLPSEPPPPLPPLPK

Q: How did the IC50 (B16F10 cells) turn out when `CS(=O)(=O)Cc1ccnc(Nc2cc(-c3ccc(F)c4ccoc34)c(F)cn2)c1` [Example 1, 5-Fluoro-4-(4-fluoro-1-benzofuran-7-yl)-N-{4-[(methylsulfonyl)methyl]pyridin-2-yl}pyridin-2-amine] was run?
A: 70 nM

Q: What about the IC50 (CDK9/CycT1) of the same molecule?
A: 3 nM

Q: And the “Selectivity CDK9/CDK2” value (CDK9/CycT1)?
A: 29

Q: And the IC50 (HeLa-MaTu-ADR cells)?
A: 36 nM

Q: Which IC50 (B16F10 cells) does the source give for `CS(=O)(=O)Cc1ccnc(Nc2cc(-c3cccc4ccoc34)c(F)cn2)c1` [Example 5, 4-(1-Benzofuran-7-yl)-5-fluoro-N-{4-[(methylsulfonyl)methyl]pyridin-2-yl}pyridin-2-amine] here?
A: 120 nM

Q: What about the IC50 (CDK9/CycT1) of the same molecule?
A: 4 nM

Q: What about the “Selectivity CDK9/CDK2” value (CDK9/CycT1) of the same molecule?
A: 17

Q: And the IC50 (HeLa-MaTu-ADR cells)?
A: 68 nM

Q: What does the source list for `Cc1cc(CS(C)(=O)=O)cc(Nc2cc(-c3ccc(F)c4ccoc34)c(F)cn2)n1` [Example 3, 5-Fluoro-4-(4-fluoro-1-benzofuran-7-yl)-N-{6-methyl-4-[(methylsulfonyl)methyl]pyridin-2-yl}pyridin-2-amine]?
A: IC50 (B16F10 cells): 32 nM; IC50 (HeLa-MaTu-ADR cells): 18 nM

Q: For `CS(=O)(=O)Cc1cc(F)nc(Nc2cc(-c3ccc(F)c4ccoc34)c(F)cn2)c1` [Example 2, 5-Fluoro-4-(4-fluoro-1-benzofuran-7-yl)-N-{6-fluoro-4-[(methylsulfonyl)methyl]pyridin-2-yl}pyridin-2-amine], which IC50 (B16F10 cells) is on record?
A: 59 nM

Q: What about the IC50 (CDK9/CycT1) of the same molecule?
A: 4 nM

Q: What about the “Selectivity CDK9/CDK2” value (CDK9/CycT1) of the same molecule?
A: 18

Q: And the IC50 (HeLa-MaTu-ADR cells)?
A: 24 nM

Q: How did the IC50 (B16F10 cells) turn out when `CS(=O)(=O)Cc1cc(Nc2cc(-c3ccc(F)c4ccoc34)c(F)cn2)nc(C(F)(F)F)c1` [Example 4, 5-Fluoro-4-(4-fluoro-1-benzofuran-7-yl)-N-{4-[(methylsulfonyl)methyl]-6-(trifluoromethyl)pyridin-2-yl}pyridin-2-amine] was run?
A: 31 nM

Q: And the IC50 (HeLa-MaTu-ADR cells)?
A: 23 nM
